We go through eleven compounds from patent US4251439A, “Pharmacologically active peptides” (Eli Lilly and Company, priority 1979, dated 1981).

Where a SMILES comes first, the peptide text is derived from it. Where no end group is shown, it is not given here. [ ]: non-standard residue; d: D form. Phg(4-OMe) = COc1ccc([C@H](N)C(=O)O)cc1; dPhg = N[C@@H](C(=O)O)c1ccccc1; Phg = N[C@H](C(=O)O)c1ccccc1

The subject of one assay is mouse. Description: mouse hot plate test (analgesic activity). Type of assay: in vivo. Conditions: subcutaneous, hot plate 52° C., 15 minutes after administration, latency until jump. On the procedure: In this test, a mouse is placed inside an upright acrylic cylinder comprising, as its base, a hot plate surface which is maintained at 52° C. The mouse is given, orally or by subcutaneous injection, a predetermined amount of test compound dissolved or suspended in a suitable carrier, and, 15 minutes after administration of the test compound, the mouse is placed on the hot plate surface. The latency in seconds until the mouse jumps from the hot plate surface is measured. […] This must occur in a dose range which produces no motor incoordination or incapacitation. The following Table records the ED50 results obtained from this test.
(Thermal pain tests record how soon the animal reacts.)

Another assay has as its system mice. Conditions: administration intracerebroventricularly; cited from earlier work.
The conditions of assay [1]: administered parenterally; cited from earlier work.
For assay [2] the following is noted: in vivo; cited from earlier work.

As for `COc1ccc([C@H](NC(=O)[C@H](Cc2ccccc2)NC(=O)CNC(=O)[C@@H](C)NC(=O)[C@@H](N)Cc2ccc(O)cc2)C(N)=O)cc1` [Example 1, L-Tyrosyl-D-alanyl-glycyl-L-phenylalanyl-L-p-methoxyphenylglycinamide] (H-Y[dA]GF[Phg(4-OMe)]-NH2), the “Analgesic Activity, Hot Plate Test ED50” value in the assay with mouse came to 3.14 mg/kg.

Take `C[C@@H](NC(=O)[C@@H](N)Cc1ccc(O)cc1)C(=O)NCC(=O)N[C@@H](Cc1ccccc1)C(=O)N[C@H](C(N)=O)c1ccccc1` [Example 2, L-Tyrosyl-D-alanyl-glycyl-L-phenylalanyl-L-phenylglycinamide] (H-Y[dA]GF[Phg]-NH2): the “Analgesic Activity, Hot Plate Test ED50” value with mouse is 0.40 mg/kg.

Consider `C[C@@H](NC(=O)[C@@H](N)Cc1ccc(O)cc1)C(=O)NCC(=O)N[C@@H](Cc1ccccc1)C(=O)N[C@@H](C(N)=O)c1ccccc1` [Example 3, L-Tyrosyl-D-alanyl-glycyl-L-phenylalanyl-D-phenylglycinamide] (H-Y[dA]GF[dPhg]-NH2), for which the “Analgesic Activity, Hot Plate Test ED50” value in the assay with mouse stood at 0.23 mg/kg.

As to `C[C@@H](NC(=O)[C@@H](N)Cc1ccc(O)cc1)C(=O)NCC(=O)N(C)[C@@H](Cc1ccccc1)C(=O)N[C@H](C(N)=O)c1ccccc1` [Example 6, L-Tyrosyl-D-alanyl-glycyl-L-(N-methyl)phenylalanyl-L-phenylglycinamide], the “Analgesic Activity, Hot Plate Test ED50” value in the assay on mouse amounted to 0.19 mg/kg.

For `C[C@@H](NC(=O)[C@@H](N)Cc1ccc(O)cc1)C(=O)NCC(=O)N(C)[C@@H](Cc1ccccc1)C(=O)N[C@@H](C(N)=O)c1ccccc1` [Example 7, L-Tyrosyl-D-alanyl-glycyl-L-(N-methyl)phenylalanyl-D-phenylglycinamide], the “Analgesic Activity, Hot Plate Test ED50” value in the assay with mouse worked out at 3.82 mg/kg.

On to `CCN(C(=O)CNC(=O)[C@@H](C)NC(=O)[C@@H](N)Cc1ccc(O)cc1)[C@@H](Cc1ccccc1)C(=O)N[C@H](C(N)=O)c1ccccc1` [Example 8, L-Tyrosyl-D-alanyl-glycyl-L-(N-ethyl)phenylalanyl-L-phenylglycinamide], for which the “Analgesic Activity, Hot Plate Test ED50” value in the assay with mouse came to 0.064 mg/kg.

For the compound `CCCN(C(=O)CNC(=O)[C@@H](C)NC(=O)[C@@H](N)Cc1ccc(O)cc1)[C@@H](Cc1ccccc1)C(=O)N[C@H](C(N)=O)c1ccccc1` [Example 9, L-Tyrosyl-D-alanyl-glycyl-L-(N-n-propyl)phenylalanyl-L-phenylglycinamide], the “Analgesic Activity, Hot Plate Test ED50” value in the assay on mouse came out at 0.15 mg/kg.

“H-Tyr-Gly-Gly-Phe-Met-OH [methionine enkephalin]”: the analgesic activity result in the assay on mice is “exhibit analgesic activity”. The useful analgesic activity entry in assay [1] is “practically devoid of any useful analgesic activity”.

With “L-Tyrosyl-D-alanyl-glycyl-L-phenylalanyl-D-p-hydroxyphenylglycinamide [Example 4]”, the “Analgesic Activity, Hot Plate Test ED50” value in the assay on mouse was 1.0 mg/kg.

In the case of “L-Tyrosyl-D-alanyl-glycyl-L-phenylalanyl-D-phenylglycin-N-methylamide [Example 5]”, the “Analgesic Activity, Hot Plate Test ED50” value in the assay on mouse is 0.74 mg/kg.

Y[dA]GF[dF]-OH: the analgesic potential result in assay [2] is “limited analgesic potential”.
